Legend:
nine cancer cell lines = experiment: MTT cytotoxicity assay, 72 h, ranges over cell line panel; format: cell-based; settings: nine cell lines, read-out: IC50 range across all cell lines tested
Procedure: (§1) Cells in a subconfluent phase are transferred to 96-well microtitre plates. L1210 cells are plated at a density of 1000 cells/well in 100 μl medium, while all other cell lines are plated at a density of 2000-25000 cells/well. The cells are left for 24 h prior to treatment to ensure exponential growth has been achieved, 24 h after plating (day 0), 100 μl of phosphatase inhibitor is added to each well, control wells received 100 μl of medium only. Drug exposure time is 72 h (day 3). The effect of phosphatase inhibition is tested in triplicate over a concentration range of […]−1×10^−8 M. Growth inhibitory effects are evaluated using the MTT assay and absorbance read at […]. The IC50 is the drug concentration at which cell growth is 50% inhibited based on the difference of optical density on day 0 and day 3 of drug exposure. Cytotoxicity is evaluated using a spectrophotometric assay which determines the percentage of cell growth following exposure of the cells to various concentrations of the phosphatase inhibitors for a period of 72 hours. The subsequent dose response curve is used to calculate IC50 values (the drug concentration at which cell growth is 50% inhibited).
(§2) Anti-cancer screening of the protein phosphatase inhibitors is assessed using the MTT assay. This assay determines cell viability by the ability of mitochondrial dehydrogenase to produce formazan crystals from 3-(4,5-dimethylthiazol-2-yl)-2,5-diphenyltetrazolium bromide. The viable cell number/well is directly proportional to the production of formazan, which following solubilization, can be measured spectrophotometrically (540 nm). This technique is also used by the National Cancer Institute to screen for new anticancer agents.
(§3) As described herein a number of cantharidin analogues have been synthesised and tested for their anticancer activity in nine cancer cell lines using the MTT assay after 72 h exposure. These new analogues are shown in FIG. 2 and have been designated MK-1 through to MK-9.

L1210 cells = experiment: MTT cytotoxicity assay, 72 h; format: cell-based, murine; settings: L1210, p53 wt; read-out: IC50 (mean ± SE) after 72 h continuous exposure
Procedure: as §1, §2, §3

HL60 cells = experiment: Cell cycle analysis, flow cytometry of propidium iodide stained cells; format: cell-based, human; settings: for Cell Cycle Distribution, G1 / Cell Cycle Distribution, G2 + M / Cell Cycle Distribution, S / Cell Cycle Distribution, sub G1 / Cell cycle remark: 12 h
Procedure: (§4) The cells are fixed in 70% ethanol and stored at −20° C. until analysis is performed (1-2 weeks). After fixing, the cells are pelleted and incubated in PBS containing propidium iodide ([…]) and RNase A (200 mg/ml) for at least 30 min at room temperature. The samples (2×10^4 events) are analysed using a Becton Dickson FACScan, fluorescence is collected in fluorescence detector 2 (FL2), filter 575/30 nm band pass. Cell cycle distribution is assessed using Cell Quest software (Becton Dickson).
(§5) The ability of the protein phosphatase inhibitors to abrogate the G1 or G2 checkpoint of the cell cycle may be determined by cell cycle analysis using flow cytometry. Briefly, asynchronous cell cultures are harvested 18 h after 6 Gy irradiation and/or 12 h incubation with the protein phosphatase inhibitor. Depending upon the p53 status of the cell line, radiation treatment alone will induce arrest in either G1 and/or G2 phase of the cell cycle.
(§6) Data shown in Table 2 and FIG. 4 show the cell cycle response of L1210, HL60, HT29 and HCT116 cells to cantharidin and the new cantharidin analogues MK-2 and MK-4 after 12 h exposure. In summary, cantharidin and MK-2 produced a similar response and induced G2 arrest in all four cell lines tested. […] HL60 and HCT116 cells. […] The magnitude of the cell cycle arrest induced by these drugs directly correlated with their cytotoxicity in the respective cell lines. […] The cytotoxicity of the […]

HCT116 cells = experiment: as above; format: cell-based, human
Procedure: as §4, §5, §6

HT29 cells = experiment: as above; format: cell-based, human; settings: 12 h
Procedure: as §4, §5, §6

O=C1OC(=O)C2C3C=CC(O3)C12 (stereo not drawn) [MK-2]
IC50 (nine cancer cell lines): 157 to 248 µM | IC50 (L1210 cells): 185 ± 51 µM | Cell Cycle Distribution, G1 (HL60 cells; HL60, 50 μM): 44.1 percentage of total | Cell Cycle Distribution, G2 + M (HL60 cells; HL60, 50 μM): 31.4 percentage of total | Cell Cycle Distribution, S (HL60 cells; HL60, 50 μM): 23.8 percentage of total | Cell Cycle Distribution, sub G1 (HL60 cells; HL60, 50 μM): 1.8 percentage of total | Cell Cycle Distribution, G1 (HL60 cells; HL60, 100 μM): 43.3 percentage of total | Cell Cycle Distribution, G2 + M (HL60 cells; HL60, 100 μM): 32.4 percentage of total | Cell Cycle Distribution, S (HL60 cells; HL60, 100 μM): 23.6 percentage of total | Cell Cycle Distribution, sub G1 (HL60 cells; HL60, 100 μM): 1.8 percentage of total | Cell Cycle Distribution, G1 (HL60 cells; HL60, 250 μM): 37.7 percentage of total | Cell Cycle Distribution, G2 + M (HL60 cells; HL60, 250 μM): 36.4 percentage of total | Cell Cycle Distribution, S (HL60 cells; HL60, 250 μM): 23.8 percentage of total | Cell Cycle Distribution, sub G1 (HL60 cells; HL60, 250 μM): 3.2 percentage of total | Cell cycle remark (HL60 cells; HL60, 250 μM): G2 arrest | Cell Cycle Distribution, G1 (HL60 cells; HL60, 500 μM): 17.8 percentage of total | Cell Cycle Distribution, G2 + M (HL60 cells; HL60, 500 μM): 43.1 percentage of total | Cell Cycle Distribution, S (HL60 cells; HL60, 500 μM): 21.6 percentage of total | Cell Cycle Distribution, sub G1 (HL60 cells; HL60, 500 μM): 18.8 percentage of total | Cell cycle remark (HL60 cells; HL60, 500 μM): Cell death | Cell cycle response (HL60 cells; HL60, 12 h exposure): G2 arrest | Cell Cycle Distribution, G1 (HCT116 cells; HCT116, 50 μM, 12 h): 47.2 percentage of total | Cell Cycle Distribution, G2 + M (HCT116 cells; HCT116, 50 μM, 12 h): 37.4 percentage of total | Cell Cycle Distribution, S (HCT116 cells; HCT116, 50 μM, 12 h): 13.8 percentage of total | Cell Cycle Distribution, sub G1 (HCT116 cells; HCT116, 50 μM, 12 h): 1.3 percentage of total | Cell Cycle Distribution, G1 (HCT116 cells; HCT116, 100 μM, 12 h): 47.2 percentage of total | Cell Cycle Distribution, G2 + M (HCT116 cells; HCT116, 100 μM, 12 h): 34.5 percentage of total | Cell Cycle Distribution, S (HCT116 cells; HCT116, 100 μM, 12 h): 16.0 percentage of total | Cell Cycle Distribution, sub G1 (HCT116 cells; HCT116, 100 μM, 12 h): 1.7 percentage of total | Cell Cycle Distribution, G1 (HCT116 cells; HCT116, 250 μM, 12 h): 52.8 percentage of total | Cell Cycle Distribution, G2 + M (HCT116 cells; HCT116, 250 μM, 12 h): 34.3 percentage of total | Cell Cycle Distribution, S (HCT116 cells; HCT116, 250 μM, 12 h): 11.1 percentage of total | Cell Cycle Distribution, sub G1 (HCT116 cells; HCT116, 250 μM, 12 h): 1.4 percentage of total | Cell Cycle Distribution, G1 (HCT116 cells; HCT116, 500 μM, 12 h): 39.4 percentage of total | Cell Cycle Distribution, G2 + M (HCT116 cells; HCT116, 500 μM, 12 h): 46.5 percentage of total | Cell Cycle Distribution, S (HCT116 cells; HCT116, 500 μM, 12 h): 11.3 percentage of total | Cell Cycle Distribution, sub G1 (HCT116 cells; HCT116, 500 μM, 12 h): 2.5 percentage of total | Cell cycle remark (HCT116 cells; HCT116, 500 μM, 12 h): G2 arrest | Cell cycle response (HCT116 cells; HCT116, 12 h exposure): G2 arrest | Cell Cycle Distribution, G1 (HT29 cells; HT29, 50 μM): 45.3 percentage of total | Cell Cycle Distribution, G2 + M (HT29 cells; HT29, 50 μM): 37.1 percentage of total | Cell Cycle Distribution, S (HT29 cells; HT29, 50 μM): 7.6 percentage of total | Cell Cycle Distribution, sub G1 (HT29 cells; HT29, 50 μM): 9.4 percentage of total | Cell Cycle Distribution, G1 (HT29 cells; HT29, 100 μM): 49.8 percentage of total | Cell Cycle Distribution, G2 + M (HT29 cells; HT29, 100 μM): 37.6 percentage of total | Cell Cycle Distribution, S (HT29 cells; HT29, 100 μM): 8.2 percentage of total | Cell Cycle Distribution, sub G1 (HT29 cells; HT29, 100 μM): 3.6 percentage of total | Cell Cycle Distribution, G1 (HT29 cells; HT29, 250 μM): 41.4 percentage of total | Cell Cycle Distribution, G2 + M (HT29 cells; HT29, 250 μM): 42.5 percentage of total | Cell Cycle Distribution, S (HT29 cells; HT29, 250 μM): 11.2 percentage of total | Cell Cycle Distribution, sub G1 (HT29 cells; HT29, 250 μM): 4.2 percentage of total | Cell cycle remark (HT29 cells; HT29, 250 μM): G2 arrest | Cell Cycle Distribution, G1 (HT29 cells; HT29, 500 μM): 44.5 percentage of total | Cell Cycle Distribution, G2 + M (HT29 cells; HT29, 500 μM): 33.6 percentage of total | Cell Cycle Distribution, S (HT29 cells; HT29, 500 μM): 15.4 percentage of total | Cell Cycle Distribution, sub G1 (HT29 cells; HT29, 500 μM): 5.2 percentage of total | Cell cycle remark (HT29 cells; HT29, 500 μM): S-phase↑
